The IC50 is the concentration at which inhibition is half-maximal. What is called CC50 is the concentration giving 50% cytotoxicity. As usually defined, the AC50 is the concentration at which the activity in the assay is half-maximal. By EC50 is commonly meant the concentration at which the effect is half-maximal.

One assay relates to H9c2. The assay is described as follows: cells. The assay is classed as functional, cell-based. As to conditions: Rattus norvegicus, H9c2, Myocardium.
The nature of assay [1]: viability of uninfected HEp-2 cells – cell-based, HTS, cytotoxicity control for RSV inhibitor project, dose response (AID 2410). The assay is classed as functional. As to conditions: human respiratory syncytial virus.
In a further assay the test system is INS1. In words: INS-1E survival protection against cytokine death – cell-based, luminescence, retest, dose response (AID 449756).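 Note: cell death triggered by IL-1 beta plus TNF-alpha plus IFN-gamma mixture; protective hits raise ATP signal compared with cytokine alone wells.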 The assay is classed as functional. As to conditions: Rattus norvegicus.
For assay [2], the system named is Streptococcus sp. 'group A'. The assay is described as follows: Streptococcus pyogenes SK(-)GAS viability under kanamycin – luminescence, BacTiterGlo, confirmation, counter-screen for streptokinase expression inhibitor project, dose response (AID 1900). The class given is functional, organism-based.
Another assay addresses T1, Streptokinase A (Streptococcus pyogenes serotype M1, UniProt P10520).
T1 sequence (P10520 whole entry): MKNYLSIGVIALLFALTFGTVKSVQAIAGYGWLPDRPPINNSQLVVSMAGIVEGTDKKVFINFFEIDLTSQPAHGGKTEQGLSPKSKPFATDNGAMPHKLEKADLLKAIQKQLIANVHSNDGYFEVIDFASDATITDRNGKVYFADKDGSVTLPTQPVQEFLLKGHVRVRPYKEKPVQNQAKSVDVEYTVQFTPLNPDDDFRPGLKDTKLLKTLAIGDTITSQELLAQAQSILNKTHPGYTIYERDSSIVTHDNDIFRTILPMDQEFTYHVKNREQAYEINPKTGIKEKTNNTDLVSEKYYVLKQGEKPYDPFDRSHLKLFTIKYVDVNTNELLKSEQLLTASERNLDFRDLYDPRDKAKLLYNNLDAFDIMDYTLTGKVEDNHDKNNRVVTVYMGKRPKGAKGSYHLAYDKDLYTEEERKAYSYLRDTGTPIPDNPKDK
The assay is described as follows: viability-normalized secreted streptokinase activity reduction – plasminogen activation absorbance, OD405, dose response (AID 1914).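 Note: secreted streptokinase activity via plasminogen activation per viability signal from cell pellet.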 The class given is functional, Streptococcus pyogenes M1 GAS.

For a further assay, the system named is Streptococcus. The assay is described as follows: GAS UMAA2166 growth inhibition – luminescence, BacTiterGlo, counter-screen for streptokinase expression inhibitor project, dose response (AID 1915).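 Note: potency for reduction of bacterial viability or growth.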 The assay is classed as functional, organism-based.
The target in another assay is T2, Protein RecA (Mycobacterium tuberculosis, UniProt P9WHJ3).
T2 sequence (P9WHJ3 whole entry): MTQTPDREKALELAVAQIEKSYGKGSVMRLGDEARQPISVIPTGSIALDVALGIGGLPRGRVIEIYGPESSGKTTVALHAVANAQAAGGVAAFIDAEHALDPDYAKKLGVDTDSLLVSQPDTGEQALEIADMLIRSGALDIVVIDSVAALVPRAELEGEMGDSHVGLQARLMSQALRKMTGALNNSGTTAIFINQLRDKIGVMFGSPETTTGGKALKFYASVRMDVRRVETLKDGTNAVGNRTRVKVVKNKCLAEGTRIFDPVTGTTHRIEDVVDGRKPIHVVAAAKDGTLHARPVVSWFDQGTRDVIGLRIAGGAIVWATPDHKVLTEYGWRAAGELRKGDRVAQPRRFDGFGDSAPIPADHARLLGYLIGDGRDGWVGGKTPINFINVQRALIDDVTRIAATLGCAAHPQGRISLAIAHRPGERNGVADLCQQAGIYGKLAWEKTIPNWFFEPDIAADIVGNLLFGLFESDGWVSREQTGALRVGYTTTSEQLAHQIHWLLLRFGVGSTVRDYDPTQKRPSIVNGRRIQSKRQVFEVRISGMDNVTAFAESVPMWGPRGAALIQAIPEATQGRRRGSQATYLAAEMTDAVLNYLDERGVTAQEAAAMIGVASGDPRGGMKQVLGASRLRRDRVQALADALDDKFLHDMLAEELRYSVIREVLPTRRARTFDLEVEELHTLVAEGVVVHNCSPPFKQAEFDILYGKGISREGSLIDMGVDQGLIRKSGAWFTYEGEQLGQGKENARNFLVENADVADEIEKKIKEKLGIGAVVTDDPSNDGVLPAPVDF
The assay is described as follows: Fluorescence Cell-Free Homogeneous Dose Retest to Identify Inhibitors of RecA-Intein Splicing Activity. [Related pubchem assays (depositor defined):AID2097, AID2223, AID489010, AID492950]. The class given is functional.

In assay [3] the target is T3, Fatty acid synthase (Homo sapiens, UniProt P49327). In words: inhibition of human FAS-TE enzyme activity – biochemical, kinetic fluorescence intensity, dose response (AID 624326).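 Note: rate of fluorescence rise from hydrolysis of a fluorogenic O-methyl fluorescein ester substrate.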 The class given is functional.
T3 sequence (P49327 whole entry): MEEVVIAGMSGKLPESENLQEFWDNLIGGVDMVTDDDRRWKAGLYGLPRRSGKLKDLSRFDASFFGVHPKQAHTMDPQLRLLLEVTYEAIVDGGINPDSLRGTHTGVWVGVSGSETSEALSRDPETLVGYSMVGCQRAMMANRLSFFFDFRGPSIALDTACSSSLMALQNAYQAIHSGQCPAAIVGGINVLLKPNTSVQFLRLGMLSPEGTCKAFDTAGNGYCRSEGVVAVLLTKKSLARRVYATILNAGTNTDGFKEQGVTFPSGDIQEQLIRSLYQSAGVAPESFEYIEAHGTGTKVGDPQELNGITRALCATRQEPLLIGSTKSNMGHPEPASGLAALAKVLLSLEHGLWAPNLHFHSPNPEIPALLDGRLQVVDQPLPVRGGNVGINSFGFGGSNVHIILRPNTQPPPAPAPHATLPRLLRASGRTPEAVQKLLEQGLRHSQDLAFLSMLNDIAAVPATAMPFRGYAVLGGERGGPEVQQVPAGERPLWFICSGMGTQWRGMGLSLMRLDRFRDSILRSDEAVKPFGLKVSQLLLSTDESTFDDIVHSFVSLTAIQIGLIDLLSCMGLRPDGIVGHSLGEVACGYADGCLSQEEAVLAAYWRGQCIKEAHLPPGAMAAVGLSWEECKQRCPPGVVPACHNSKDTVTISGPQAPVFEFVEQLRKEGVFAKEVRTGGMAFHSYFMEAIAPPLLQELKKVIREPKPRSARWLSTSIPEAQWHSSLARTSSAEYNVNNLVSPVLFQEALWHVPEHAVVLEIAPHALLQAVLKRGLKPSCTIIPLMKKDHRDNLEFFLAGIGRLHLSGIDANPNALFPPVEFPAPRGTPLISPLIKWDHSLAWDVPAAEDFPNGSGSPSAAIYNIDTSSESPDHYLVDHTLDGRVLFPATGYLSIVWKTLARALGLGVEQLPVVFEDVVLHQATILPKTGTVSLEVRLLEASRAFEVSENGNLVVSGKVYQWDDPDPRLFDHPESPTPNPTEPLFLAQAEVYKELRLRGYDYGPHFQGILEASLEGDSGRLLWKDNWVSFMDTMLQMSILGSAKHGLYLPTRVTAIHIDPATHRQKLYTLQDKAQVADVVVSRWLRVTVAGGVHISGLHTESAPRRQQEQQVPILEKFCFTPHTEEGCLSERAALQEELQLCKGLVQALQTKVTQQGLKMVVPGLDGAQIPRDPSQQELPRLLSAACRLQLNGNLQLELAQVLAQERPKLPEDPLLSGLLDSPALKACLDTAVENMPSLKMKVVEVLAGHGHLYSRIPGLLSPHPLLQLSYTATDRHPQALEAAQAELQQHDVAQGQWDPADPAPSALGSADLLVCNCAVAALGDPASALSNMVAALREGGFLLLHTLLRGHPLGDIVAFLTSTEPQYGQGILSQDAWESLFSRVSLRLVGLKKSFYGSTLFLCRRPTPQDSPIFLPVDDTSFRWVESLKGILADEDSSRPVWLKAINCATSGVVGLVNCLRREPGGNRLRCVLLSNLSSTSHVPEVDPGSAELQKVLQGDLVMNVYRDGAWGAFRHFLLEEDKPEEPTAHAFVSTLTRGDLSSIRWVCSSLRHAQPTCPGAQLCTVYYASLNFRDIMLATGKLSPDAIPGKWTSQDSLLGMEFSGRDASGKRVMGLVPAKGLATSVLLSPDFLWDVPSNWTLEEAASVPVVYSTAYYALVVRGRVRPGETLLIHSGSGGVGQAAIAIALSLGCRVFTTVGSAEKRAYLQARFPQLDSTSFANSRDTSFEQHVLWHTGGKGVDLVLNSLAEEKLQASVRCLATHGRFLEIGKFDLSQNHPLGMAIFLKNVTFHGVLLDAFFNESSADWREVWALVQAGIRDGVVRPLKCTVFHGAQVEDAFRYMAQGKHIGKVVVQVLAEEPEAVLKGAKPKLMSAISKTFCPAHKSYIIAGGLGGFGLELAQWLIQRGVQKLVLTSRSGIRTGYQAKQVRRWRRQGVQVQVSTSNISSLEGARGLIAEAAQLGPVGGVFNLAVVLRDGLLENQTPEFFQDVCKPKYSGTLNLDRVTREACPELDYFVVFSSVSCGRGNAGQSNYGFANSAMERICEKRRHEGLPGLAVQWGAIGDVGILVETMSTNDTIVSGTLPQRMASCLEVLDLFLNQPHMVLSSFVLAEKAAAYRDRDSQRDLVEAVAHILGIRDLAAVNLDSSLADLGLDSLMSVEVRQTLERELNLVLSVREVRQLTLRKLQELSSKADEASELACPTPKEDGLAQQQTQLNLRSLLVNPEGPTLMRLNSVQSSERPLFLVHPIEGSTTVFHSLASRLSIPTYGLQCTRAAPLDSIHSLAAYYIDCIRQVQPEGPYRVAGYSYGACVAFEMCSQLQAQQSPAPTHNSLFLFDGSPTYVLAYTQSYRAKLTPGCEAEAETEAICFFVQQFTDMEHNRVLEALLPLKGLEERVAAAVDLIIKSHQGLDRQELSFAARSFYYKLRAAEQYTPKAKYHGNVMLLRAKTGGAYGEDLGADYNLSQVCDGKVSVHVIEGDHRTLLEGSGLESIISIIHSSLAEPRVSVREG
In assay [4] the target is T3, Fatty acid synthase. The assay is described as follows: inhibition of human FAS-TE enzyme activity – biochemical, endpoint fluorescence intensity, uHTS hits, dose response (AID 624327).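 Note: fluorescence from hydrolysis of an O-methyl fluorescein acyl ester substrate by the enzyme.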 The class given is functional.
A short description of assay [5]: luciferase reporter signal suppression in cells – H4 neuroglioma cells, luminescence, dose response (AID 1990). The assay is classed as functional, cell-based. For orientation: A reporter such as luciferase makes a cellular process visible.
Assay [6] in a line: Luminescence Cell-Based Dose Response HTS to Identify Inhibitors of 5'UTR Stem-Loop Driven Prion Protein mRNA Translation in H4 Neuroglioblastoma Cells. [Related pubchem assays: 1827 (Project Summary), 1813 (Primary HTS)]. The class given is functional.
A short description of assay [7]: alpha-synuclein stem-loop luciferase translation blockers – H4 neuroglioma cells, luminescence, confirmation (AID 1988). The assay is classed as functional, cell-based.
The test system of a further assay is H4. The assay is described as follows: Luminescence Cell-Based Dose Response HTS to Identify Activators of 5'UTR Stem-Loop Driven Prion Protein mRNA Translation in H4 Neuroglioblastoma Cells. [Related pubchem assays: 1829 (Project Summary), 1814 (Primary HTS)]. The assay is classed as functional. The following applies: Homo sapiens.
Assay [8] in a line: Luminescence Cell-Based Dose Confirmation HTS to Identify Activators of 5'UTR Stem-Loop Driven Alpha-Synuclein mRNA Translation in H4 Neuroglioblastoma Cells. [Related pubchem assays: 1829 (Project Summary), 1814 (Primary HTS)]. The class given is functional.
The nature of assay [9]: Luminescence Cell-Based Dose Response HTS to Identify Activators of Luciferase Translation or Activity in H4 […] Cells. [Related pubchem assays: 1829 (Project Summary), 1814 (Primary HTS)]. The class given is functional.

The source made the active and inactive calls. Cut-off read from the data, not from the text of the source, for most assays here: actives have a measured EC50 and inactives only a lower limit. A value given as a limit tells only on which side of the number the result lay.

In the case of `COc1cc(CCNc2ccc3nnc(-c4ccccc4)n3n2)cc(OC)c1OC`, in the assay with H9c2, the IC50 was > 79 µM (inactive).

In the case of `Cc1[nH]c2ccccc2c1N=Nc1ccc(F)cc1`, in assay [1], the 50% cytotoxic concentration (CC50) was 17.2 µM (active). On to `COc1ccccc1NC(=O)CSc1ccc2nnc(-c3ccc(C)cc3)n2n1`, for which the IC50 in the assay with H9c2 was > 79 µM (inactive). Take `COc1ccc(-c2nn(-c3ccccc3)cc2C(=O)OCC(=O)c2ccc(C)c([N+](=O)[O-])c2)cc1`: the AC50 in the assay with INS1 was 0.97 µM (active). As for `C[C@@H](C(=O)Nc1ccc2ccccc2c1)[C@H]1C[C@]1(C)[C@H](NS(=O)(=O)c1ccccc1)c1ccccc1`, the cytotoxic concentration (CC50) in assay [1] was 36.4 µM (active). For `Cc1cc(C)n(-c2nc(NCCO)c3c4c(sc3n2)CCCC4)n1`, the AC50 in the assay with INS1 was 5.3 µM (active).

Regarding `Cc1[nH]c2ccccc2c1/C=N/NC(=O)c1cc(-c2cccs2)[nH]n1`, the IC50 in the assay on H9c2 was > 79 µM (inactive). On the same count and under the same terms, with `COc1ccc(C(C(=O)NCc2ccccc2)N(Cc2ccco2)C(=O)c2snc(C(N)=O)c2N)cc1` (centres undefined) the figure was > 79 µM (inactive); with `Cc1cccc(NC(=O)c2cc(-c3ccco3)nc3ccccc23)n1`, > 79 µM (inactive). Turning to `CCC(=O)Nc1ccc(Nc2nc(C)c([N+](=O)[O-])c(Nc3ccc(NC(=O)CC)cc3)n2)cc1`, the 50% effective concentration (EC50) was 0.487 µM (active) in assay [2], > 150 µM (not active) at Streptokinase A and 49.3 µM (active) in the assay with Streptococcus. Regarding `CC(C)(C)c1ccc(Cn2ccc(-c3ccc4c(c3)OCO4)n2)cc1`, the concentration for a half-maximal effect (EC50) in assay [2] was 9.62 µM (active); on Streptokinase A, > 150 µM (not active); in the assay on Streptococcus, 79.9 µM (active). On to `Cc1ccccc1/N=C1\C(Cl)=C(O)OC1OC(=O)c1ccco1` (centres undefined), for which, on Protein RecA, the EC50 was 11.4 µM (active). In addition, the concentration for half-maximal inhibition (IC50) on Fatty acid synthase [3] is 4.35 µM (active); at Fatty acid synthase [4] it was 3.24 µM (active). As for `CCOC(=O)c1ccc(NC(=O)CC2SC(N/N=C/c3c[nH]c4ccccc34)=NC2=O)cc1` (centres undefined), the figures for the EC50 (in assay [2]; on Streptokinase A; in the assay on Streptococcus) were 3.35 µM (active), > 150 µM (not active) and > 150 µM (not active), respectively. As to `CC(C)(C)C(=O)N1N=C(c2ccc(NS(C)(=O)=O)cc2)CC1c1cccs1` (centres undefined), the results for the EC50 (in [2]; at Streptokinase A; with Streptococcus) were 6.62 µM (active), > 150 µM (not active) and 12.4 µM (active), respectively. Turning to `Cc1ccc2nc(-c3ccccc3)cc(C(=O)NNC(=O)c3csc(N4CCOCC4)n3)c2c1`, the IC50 with H9c2 was > 79 µM (inactive). For the compound `CCCC(=O)Nc1sc2c(c1C(=O)OC)C(C(=O)OC)CC2` (centres undefined), in assay [1], the CC50 is 31.6 µM (active).

Turning to `CCc1ccc(/C=C2\SC(N3CCCC3)=NC2=O)cc1`, the cytotoxic concentration (CC50) in [1] is > 50 µM (active).

As for `Oc1nc2c(c3c1CCCC3)CCCC2`, the IC50 in the assay with H9c2 is > 79 µM (inactive).

As for `COc1cccc(-c2nnc3sc(-c4ccccn4)nn23)c1`, in the assay on H9c2, the IC50 is > 79 µM (inactive).

Consider `COc1ccc(/C=N/NC(=O)c2cc(C(C)(C)C)[nH]n2)cc1COc1ccc(F)cc1F`, for which the 50% effective concentration (EC50) in assay [2] was 6.95 µM (active); on Streptokinase A, > 150 µM (not active); in the assay with Streptococcus, 11.7 µM (active).

Turning to `O=C(CSc1ccc(-c2ccc(Cl)cc2)nn1)NC1CCCC1`, the EC50 (in [2]; on Streptokinase A; with Streptococcus) was > 150 µM (not active) throughout. Regarding `CCOC(=O)N1CCC(n2c(SCC(=O)N3CCC(C)CC3)nc3ccccc3c2=O)CC1`, the IC50 in the assay with H9c2 was > 79 µM (inactive). As to `COc1ccc(/C=C/C(=O)c2ccccc2O)cc1CN1CCOCC1`, the IC50 in the assay with H9c2 was > 79 µM (inactive). With `COc1ccc(-c2[nH]c(-c3ccc(C)cc3)nc2SCC(=O)NC2CCCC2)cc1`, in [1], the CC50 is 38.9 µM (active). `O=C(NC(=S)N1CCN(C(c2ccccc2)c2ccccc2)CC1)c1ccc(S(=O)(=O)N2CCOCC2)cc1`: the 50% effective concentration (EC50) is 1.14 µM (active) in [2], > 150 µM (not active) on Streptokinase A and 108 µM (active) in the assay on Streptococcus.

Regarding `CCn1c(SCC(=O)Nc2ncc(C(F)(F)F)cc2Cl)nnc1-c1cccc(C)c1`, the half-maximal inhibitory concentration (IC50) at Fatty acid synthase [3] is 3.94 µM (active); at Fatty acid synthase [4], 3.66 µM (active). Turning to `CC[C@@]12C(=O)N(c3cccc(Br)c3)C(=O)N1[C@H](c1ccc(F)cc1)[C@@H]1C(=O)N(C3CCCCC3)C(=O)[C@@H]12`, the 50% cytotoxic concentration (CC50) in assay [1] is 41.1 µM (active). Still for that read-out and setting: with `CC1CN(c2ccc([N+](=O)[O-])cc2C#N)CC(C)O1` (centres undefined) the figure was 34.9 µM (active). As for `COc1cc(OC)c(NC(=O)c2sc3ncn(CC(=O)N4CCN(c5ccccn5)CC4)c(=O)c3c2C)cc1Cl`, the EC50 was 11.6 µM (active) in assay [2], > 150 µM (not active) on Streptokinase A and 86.6 µM (active) with Streptococcus.

`FC(F)(F)c1nc2ccccc2n2c(-c3ccc(Cl)cc3)nnc12`: the 50% effective concentration (EC50) in [5] is 9.07 µM (active); in assay [6], 9.21 µM (active); in assay [7], 8.92 µM (active). In addition, the AC50 in the assay with INS1 was 6.4 µM (active). In the case of `O=C(COC(=O)c1cc(-c2cccnc2)nc2ccccc12)Nc1ccc(F)cc1F`, the half-maximal inhibitory concentration (IC50) in the assay on H9c2 is 13.8 µM (active).

Take `CC(=O)c1c(C)n(-c2cccc(Cl)c2)c2ccc(O)cc12`: the IC50 in the assay on H9c2 is 10.4 µM (active). In the case of `O=C(CCc1nc(O)c2ccccc2n1)Nc1nc(-c2cccs2)cs1`, the values for the EC50 (in the assay with H4; in [8]; in assay [9]) were 104 µM (inconclusive), 12.5 µM (active) and 15.8 µM (active), respectively. In addition, the 50% inhibitory concentration (IC50) in the assay on H9c2 was 17.3 µM (active). For `O=C(/C=C/c1cccs1)c1cc(Br)ccc1OC(=O)N1CCOCC1`, in assay [1], the half-maximal cytotoxic concentration (CC50) was 18.7 µM (active).

The record behind these values is ChEMBL document CHEMBL1201862, “PubChem BioAssay data set” (2004).
